Literature values in patent US8211015B2 (priority 2006, dated 2012).

Details: in vivo

| SMILES | analgesic effect on labor pain |
| --- | --- |
| CCOC(=O)C1(c2ccccc2)CCN(C)CC1 [meperidine] | more sedation than actual analgesia |
| CN1CC[C@]23c4c5ccc(O)c4O[C@H]2[C@@H](O)C=C[C@H]3[C@H]1C5 [morphine] | more sedation than actual analgesia |
